Consider twelve compounds from ChEMBL document CHEMBL1201862, “PubChem BioAssay data set” (2004).

Holding throughout (assay): growth of human tumour cells (NCI), 48 h
Experiment [1] has as its system DU-145.
For experiment [2], the system named is K562.
Experiment [3] has as its system NCI-H23.
For experiment [4], the system named is SK-OV-3.
Experiment [5] concerns UO-31.
The test system of experiment [6] is CAKI-1.
For experiment [7], the system named is NCI/ADR-RES.
Experiment [8] relates to HL-60.
In experiment [9] the test system is RXF 393.
Experiment [10] concerns MDA-MB-231.
Experiment [11] deals with KM12.
The subject of experiment [12] is OVCAR-5.
Experiment [13] has as its system SK-MEL-28.
The test system of experiment [14] is MCF7.
Experiment [15] deals with NCI-H522.
Experiment [16] deals with SF-268.
In experiment [17] the test system is HCT-15.
For experiment [18], the system named is OVCAR-4.
Experiment [19] concerns U-251.

The structures appear in SMILES notation.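 Step 1: Grow cells in 96-well plates. Step 2: Expose to compound for 48 hours at 5 concentrations. Step 3: Interpolate endpoints linearly; if unreached, use highest concentration. GI50 is the concentration that inhibits growth by half.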 Active and inactive are the calls of the source. Cut-off read from the data, not from the text of the source: active = GI50 up to about 1.1 µM and inactive = higher.

For `CCN(CC)Cc1cc(Nc2c3ccccc3nc3c4ccccc4n(C)c23)cc(CN(CC)CC)c1O`, the GI50 is 8.67 µM (inactive) in experiment [1]; 2.76 µM (inactive) in experiment [2]; 9.64 µM (inactive) in experiment [3]; 14.4 µM (inactive) in [4]; 2.12 µM (inactive) in experiment [5]; 13.5 µM (inactive) in experiment [6]. Besides, the GI50 in [7] is 2.91 µM (inactive); in [8], 2.31 µM (inactive); in experiment [9], 3.16 µM (inactive); in [10], 3.03 µM (inactive); in experiment [11], 6.58 µM (inactive); in experiment [12], 6.84 µM (inactive). Further, the GI50 in experiment [13] is 2.37 µM (inactive); in [14], 3.61 µM (inactive); in experiment [15], 1.75 µM (inactive); in experiment [16], 6.78 µM (inactive); in [17], 4.1 µM; in [18] it was 4.43 µM (inactive). For the same compound, in experiment [19], the GI50 was 5.27 µM (inactive).
Take `CSc1nc(CO)c(CO)n1C`: the GI50 in experiment [2], in [3], in experiment [4], in [5], in [6] and in experiment [7] was > 100 µM (inactive) throughout. Further, the GI50 in experiment [8], in experiment [9], in experiment [11], in [12], in experiment [13] and in experiment [14] was > 100 µM (inactive) throughout. The GI50 in experiment [15] is > 100 µM (inactive); in experiment [16] it was > 100 µM (inactive); in experiment [17], greater than 100 µM; in experiment [18], > 100 µM (inactive); in experiment [19], > 100 µM (inactive).
As for `CCCCCCCCCc1cc(=O)c2c(O)cccc2o1`, the GI50 is 29.2 µM (inactive) in experiment [2]; 65.5 µM (inactive) in experiment [3]; > 100 µM (inactive) in [4]; 37.1 µM (inactive) in [5]; 69.3 µM (inactive) in [6]; 25.2 µM (inactive) in [8]. Also, the GI50 in experiment [9] is 53 µM (inactive); in experiment [11] it was 40.6 µM (inactive); in experiment [12], 38.8 µM (inactive); in [13], 55.6 µM (inactive); in experiment [15] it was 34.9 µM (inactive); in experiment [16] it was 31.8 µM (inactive). For the same compound, the GI50 is 41.3 µM in [17], 50.7 µM (inactive) in experiment [18] and 48.1 µM (inactive) in [19].
For the compound `COc1cc(Nc2c(C#N)[n+]([O-])c3ccccc3[n+]2[O-])cc(OC)c1OC`, the GI50 in experiment [1] is 43.3 µM (inactive); in experiment [2], 39.1 µM (inactive); in [3], 19.6 µM (inactive); in experiment [4], 15.7 µM (inactive); in [5], > 100 µM (inactive); in experiment [6], 38.1 µM (inactive). The GI50 in [7] was 17.3 µM (inactive); in experiment [8], 41.2 µM (inactive); in [9], 33.8 µM (inactive); in experiment [11] it was 37.7 µM (inactive); in experiment [12], 22.3 µM (inactive); in experiment [13], 19 µM (inactive). Further, the GI50 in experiment [14] is 24.2 µM (inactive); in experiment [15], 29.1 µM (inactive); in experiment [16] it was 27.2 µM (inactive); in experiment [17], 15.6 µM; in experiment [18] it was > 100 µM (inactive); in [19] it was 38 µM (inactive).
In the case of `COc1ccc(/C=C2\CCC(CNc3ccc(Br)cc3)C2=O)cc1` (stereo not given), the GI50 is > 100 µM (inactive) in [1]; 20 µM (inactive) in [2]; > 100 µM (inactive) in experiment [3]; > 100 µM (inactive) in experiment [4]; 73.8 µM (inactive) in [5]; > 100 µM (inactive) in [6]. For the same compound, the GI50 in experiment [7] was > 100 µM (inactive); in [8] it was 24.5 µM (inactive); in experiment [9], > 100 µM (inactive); in experiment [10], 53.3 µM (inactive); in [11], 29.1 µM (inactive); in [12], > 100 µM (inactive). In addition, the GI50 in [13] was > 100 µM (inactive); in experiment [14] it was 21.5 µM (inactive); in experiment [15], > 10 µM (inactive); in experiment [16], > 100 µM (inactive); in experiment [17], 8.45 µM; in experiment [18], > 100 µM (inactive). Also, the GI50 in [19] is > 100 µM (inactive).
For `c1ccc2c(c1)ccn1ccc3c4ccccc4nc-3c21`, the GI50 in experiment [1] is 0.351 µM (active); in experiment [2], 0.194 µM (active); in experiment [3] it was 0.289 µM (active); in [4], 0.566 µM (active); in experiment [5], 0.34 µM (active); in experiment [6] it was 0.417 µM (active). The GI50 in experiment [7] is 0.33 µM (active); in experiment [8] it was 0.297 µM (active); in experiment [9], 0.439 µM (active); in experiment [10] it was 0.322 µM (active); in experiment [11], 0.346 µM (active); in [12], 0.475 µM (active). Further, the GI50 in experiment [13] was 0.368 µM (active); in [14], 0.229 µM (active); in experiment [15] it was 0.3 µM (active); in [16], 0.536 µM (active); in [17] it was 0.305 µM; in experiment [18], 0.332 µM (active). Moreover, the GI50 in experiment [19] is 0.299 µM (active).
`Cc1c(Cl)cccc1NC(=O)c1cccc([N+](=O)[O-])c1O`: the GI50 is 17.3 µM (inactive) in [2]; 6.87 µM (inactive) in experiment [3]; 25.6 µM (inactive) in experiment [4]; 10.5 µM (inactive) in experiment [5]; 9.59 µM (inactive) in experiment [6]; 8.39 µM (inactive) in experiment [8]. Further, the GI50 in experiment [9] is 4.29 µM (inactive); in experiment [11], 21.4 µM (inactive); in experiment [12] it was > 43 µM (inactive); in experiment [13], 9.68 µM (inactive); in experiment [15] it was 6.44 µM (inactive); in experiment [16] it was 20.3 µM (inactive). Moreover, the GI50 is 14.4 µM in experiment [17], 9.79 µM (inactive) in [18] and 9.44 µM (inactive) in experiment [19].
On to `NC(=O)C(=CN1C(=O)CC(=O)NC1=S)C(N)=O`, for which the GI50 in experiment [1], in experiment [3], in experiment [4], in experiment [5], in experiment [6] and in [7] was > 100 µM (inactive) each time. In addition, the GI50 in [8], in experiment [9], in experiment [10], in [11], in [12] and in experiment [13] was > 100 µM (inactive) in each case. Moreover, the GI50 in [14] was > 100 µM (inactive); in [16], > 100 µM (inactive); in [17], greater than 100 µM; in experiment [18], > 100 µM (inactive); in experiment [19] it was > 100 µM (inactive).
In the case of `CSc1s[s+]c(SC)c1[O-]`, the GI50 in experiment [2] was 3.94 µM (inactive); in experiment [3] it was 20.5 µM (inactive); in [4], > 100 µM (inactive); in experiment [5], > 100 µM (inactive); in experiment [6] it was 20.7 µM (inactive); in experiment [8], 17.4 µM (inactive). Besides, the GI50 in [9] is 21.2 µM (inactive); in [11] it was 62.4 µM (inactive); in experiment [12] it was > 100 µM (inactive); in experiment [13] it was 17.1 µM (inactive); in experiment [15] it was 15.7 µM (inactive); in [16], 20.9 µM (inactive). For the same compound, the GI50 in experiment [17] is 32.9 µM; in experiment [18] it was 51.2 µM (inactive); in experiment [19], 26.7 µM (inactive).
Regarding `CC(=O)Nc1ccc(-c2nnc(SCC(=O)Nc3ccccc3Cl)o2)cc1`, the GI50 in [2], in experiment [3], in experiment [4], in experiment [5], in [6] and in [8] was > 100 µM (inactive) each time. Also, the GI50 in experiment [9], in [11], in experiment [12], in [13], in experiment [15] and in experiment [16] was > 100 µM (inactive) each time. Further, the GI50 is greater than 100 µM in [17], > 100 µM (inactive) in [18] and > 100 µM (inactive) in [19].
As for `C[S+](C)C1(c2ccccc2)C(=O)c2ccccc2C1=O`, the GI50 in experiment [1] was > 100 µM (inactive); in [2], > 51.6 µM (inactive); in experiment [3], > 65.9 µM (inactive); in experiment [4], > 100 µM (inactive); in [5], 32.1 µM (inactive); in experiment [6], > 100 µM (inactive). In addition, the GI50 in [7] is 24.8 µM (inactive); in experiment [8] it was > 31.6 µM (inactive); in [9], 33.3 µM (inactive); in experiment [11] it was > 100 µM (inactive); in experiment [12] it was > 49.3 µM (inactive); in experiment [13], > 100 µM (inactive). Further, the GI50 in experiment [14] is > 100 µM (inactive); in experiment [15] it was > 48.8 µM (inactive); in experiment [16], 60.3 µM (inactive); in experiment [17] it was greater than 51.1 µM; in experiment [18], > 47.6 µM (inactive); in [19], 22.5 µM (inactive).
On to `Cc1cccc2c(N)c3cccc(C(=O)NCCN(C)C)c3nc12`, for which the GI50 is 0.0188 µM (active) in experiment [1]; 0.0162 µM (active) in experiment [2]; < 0.0259 µM (active) in [3]; 0.113 µM (active) in experiment [4]; 0.112 µM (active) in experiment [5]; < 0.015 µM (active) in experiment [6]. For the same compound, the GI50 in experiment [7] is 0.373 µM (active); in experiment [8] it was < 0.01 µM (active); in [9] it was 0.184 µM (active); in [10], 0.0538 µM (active); in [12], 0.0935 µM (active); in experiment [13], 0.193 µM (active). In addition, the GI50 in experiment [14] is < 0.0168 µM (active); in experiment [15], < 0.0176 µM (active); in [16], < 0.0265 µM (active); in [17] it was less than 0.0154 µM; in experiment [18], 0.09 µM (active); in experiment [19], < 0.0302 µM (active).
